Results reported in the kinase profiling compilation of Christmann-Franck et al. (2016).

How the values were obtained:
ROCK2 (rat) = conditions: accession and sequence are those of the human protein
CSNK2A1 (human) = CSNK2A1 (human) (UniProt P68400)
MAPK13 (human) = MAPK13 (human) (UniProt O15264)
SYK (human) = SYK (human) (UniProt P43405)
NEK2 (human) = NEK2 (human) (UniProt P51955)
PRKACA (human) = PRKACA (human) (UniProt P17612)
MARK3 (human) [1] = target: MARK3 (human) (UniProt P27448)
CHEK1 (human) = CHEK1 (human) (UniProt O14757)
CaMK1 (human) = CaMK1 (human) (UniProt Q14012); assay: KINOMEscan competition binding; conditions: compound 10.0 µM
PIK3CB (human) = PIK3CB (human) (UniProt P42338); assay: KINOMEscan competition binding; conditions: compound 10.0 µM
MAPKAPK5 (human) = MAPKAPK5 (human) (UniProt Q8IW41); assay: KINOMEscan competition binding; conditions: compound 10.0 µM
EPHB2 (human) = EPHB2 (human) (UniProt P29323); assay: KINOMEscan competition binding; conditions: compound 10.0 µM
NEK6 (human) = NEK6 (human) (UniProt Q9HC98); assay: KINOMEscan competition binding; conditions: compound 10.0 µM
PAK4 (human) = PAK4 (human) (UniProt O96013); assay: KINOMEscan competition binding; conditions: compound 10.0 µM
MAK (human) = MAK (human) (UniProt P20794); assay: KINOMEscan competition binding; conditions: compound 10.0 µM
RAF1 (human) = RAF1 (human) (UniProt P04049); assay: KINOMEscan competition binding; conditions: compound 10.0 µM
CDC42BPA (human) = CDC42BPA (human) (UniProt Q5VT25); assay: KINOMEscan competition binding; conditions: compound 10.0 µM
TGFBR2 (human) = TGFBR2 (human) (UniProt P37173); assay: KINOMEscan competition binding; conditions: compound 10.0 µM
TESK1 (human) = TESK1 (human) (UniProt Q15569); assay: KINOMEscan competition binding; conditions: compound 10.0 µM
KDR (human) = KDR (human) (UniProt P35968); assay: KINOMEscan competition binding; conditions: compound 10.0 µM
STK32C (human) = STK32C (human) (UniProt Q86UX6); assay: KINOMEscan competition binding; conditions: compound 10.0 µM
TXK (human) = TXK (human) (UniProt P42681); assay: KINOMEscan competition binding; conditions: compound 10.0 µM
[2] = test system: PIK3CA (human), P42336 [I800L]; assay: KINOMEscan competition binding; conditions: compound 10.0 µM
[3] = test system: PIK3CA (human), P42336 [E545A]; assay: KINOMEscan competition binding; conditions: compound 10.0 µM
EPHB1 (human) = EPHB1 (human) (UniProt P54762); assay: KINOMEscan competition binding; conditions: compound 10.0 µM
CSK (human) = CSK (human) (UniProt P41240); assay: KINOMEscan competition binding; conditions: compound 10.0 µM
SGK3 (human) = SGK3 (human) (UniProt Q96BR1); assay: KINOMEscan competition binding; conditions: compound 10.0 µM
DDR1 (human) = DDR1 (human) (UniProt Q08345); assay: KINOMEscan competition binding; conditions: compound 10.0 µM
ALK (human) = ALK (human) (UniProt Q9UM73); assay: KINOMEscan competition binding; conditions: compound 10.0 µM
MAP3K6 (human) = MAP3K6 (human) (UniProt O95382); assay: KINOMEscan competition binding; conditions: compound 10.0 µM
MAPK7 (human) = MAPK7 (human) (UniProt Q13164); assay: KINOMEscan competition binding; conditions: compound 10.0 µM
CAMK1G (human) = CAMK1G (human) (UniProt Q96NX5); assay: KINOMEscan competition binding; conditions: compound 10.0 µM
MAP2K7 (human) = MAP2K7 (human) (UniProt O14733); assay: KINOMEscan competition binding; conditions: compound 10.0 µM
PIK3C2B (human) = PIK3C2B (human) (UniProt O00750); assay: KINOMEscan competition binding; conditions: compound 10.0 µM
MARK3 (human) [4] = target: MARK3 (human) (UniProt P27448); assay: KINOMEscan competition binding; conditions: compound 10.0 µM
[5] = test system: BRAF (human), P15056 [V600E]; assay: KINOMEscan competition binding; conditions: compound 10.0 µM
FER (human) = FER (human) (UniProt P16591); assay: KINOMEscan competition binding; conditions: compound 10.0 µM
CSNK1A1 (human) = CSNK1A1 (human) (UniProt P48729); assay: KINOMEscan competition binding; conditions: compound 10.0 µM
SRPK3 (human) = SRPK3 (human) (UniProt Q9UPE1); assay: KINOMEscan competition binding; conditions: compound 10.0 µM

Chain of NEK2 (human) (P51955 whole entry, looked up): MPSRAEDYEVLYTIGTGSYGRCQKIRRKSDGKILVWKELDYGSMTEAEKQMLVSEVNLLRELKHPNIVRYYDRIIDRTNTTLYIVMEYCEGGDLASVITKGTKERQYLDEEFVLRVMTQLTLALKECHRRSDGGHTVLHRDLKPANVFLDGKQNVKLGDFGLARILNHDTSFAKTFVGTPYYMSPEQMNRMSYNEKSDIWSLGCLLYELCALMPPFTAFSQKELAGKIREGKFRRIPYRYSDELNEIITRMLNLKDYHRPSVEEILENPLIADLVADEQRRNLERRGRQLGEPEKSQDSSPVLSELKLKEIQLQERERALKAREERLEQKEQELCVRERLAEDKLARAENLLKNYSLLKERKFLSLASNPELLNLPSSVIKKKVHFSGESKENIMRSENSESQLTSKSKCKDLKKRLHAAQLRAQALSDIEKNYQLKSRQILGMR
Chain of CHEK1 (human) (O14757 whole entry, looked up): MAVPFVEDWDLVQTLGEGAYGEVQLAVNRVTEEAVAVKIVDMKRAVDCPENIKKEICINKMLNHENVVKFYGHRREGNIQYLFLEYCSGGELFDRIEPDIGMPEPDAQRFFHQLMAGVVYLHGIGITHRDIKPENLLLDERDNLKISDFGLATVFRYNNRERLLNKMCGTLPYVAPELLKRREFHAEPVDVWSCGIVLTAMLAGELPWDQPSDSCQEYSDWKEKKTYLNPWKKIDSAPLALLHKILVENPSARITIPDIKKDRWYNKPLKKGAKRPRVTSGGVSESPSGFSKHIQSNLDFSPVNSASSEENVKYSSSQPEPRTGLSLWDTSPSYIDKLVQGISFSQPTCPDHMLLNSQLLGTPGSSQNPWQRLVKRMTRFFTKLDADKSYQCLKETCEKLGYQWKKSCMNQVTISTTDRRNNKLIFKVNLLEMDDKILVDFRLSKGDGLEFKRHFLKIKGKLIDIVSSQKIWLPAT
Chain of MAPK13 (human) (O15264 whole entry, looked up): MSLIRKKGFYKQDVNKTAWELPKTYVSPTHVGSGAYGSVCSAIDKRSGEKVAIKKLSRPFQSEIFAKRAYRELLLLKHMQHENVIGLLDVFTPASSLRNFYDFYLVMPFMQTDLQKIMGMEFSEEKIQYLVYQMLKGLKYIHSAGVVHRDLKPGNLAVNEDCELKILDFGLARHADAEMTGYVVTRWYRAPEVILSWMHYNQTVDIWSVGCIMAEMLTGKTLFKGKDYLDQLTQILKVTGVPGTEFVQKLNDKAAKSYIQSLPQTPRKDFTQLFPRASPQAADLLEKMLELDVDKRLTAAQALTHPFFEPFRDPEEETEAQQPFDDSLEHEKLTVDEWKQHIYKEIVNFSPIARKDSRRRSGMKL
Chain of MARK3 (human) (P27448 whole entry, looked up): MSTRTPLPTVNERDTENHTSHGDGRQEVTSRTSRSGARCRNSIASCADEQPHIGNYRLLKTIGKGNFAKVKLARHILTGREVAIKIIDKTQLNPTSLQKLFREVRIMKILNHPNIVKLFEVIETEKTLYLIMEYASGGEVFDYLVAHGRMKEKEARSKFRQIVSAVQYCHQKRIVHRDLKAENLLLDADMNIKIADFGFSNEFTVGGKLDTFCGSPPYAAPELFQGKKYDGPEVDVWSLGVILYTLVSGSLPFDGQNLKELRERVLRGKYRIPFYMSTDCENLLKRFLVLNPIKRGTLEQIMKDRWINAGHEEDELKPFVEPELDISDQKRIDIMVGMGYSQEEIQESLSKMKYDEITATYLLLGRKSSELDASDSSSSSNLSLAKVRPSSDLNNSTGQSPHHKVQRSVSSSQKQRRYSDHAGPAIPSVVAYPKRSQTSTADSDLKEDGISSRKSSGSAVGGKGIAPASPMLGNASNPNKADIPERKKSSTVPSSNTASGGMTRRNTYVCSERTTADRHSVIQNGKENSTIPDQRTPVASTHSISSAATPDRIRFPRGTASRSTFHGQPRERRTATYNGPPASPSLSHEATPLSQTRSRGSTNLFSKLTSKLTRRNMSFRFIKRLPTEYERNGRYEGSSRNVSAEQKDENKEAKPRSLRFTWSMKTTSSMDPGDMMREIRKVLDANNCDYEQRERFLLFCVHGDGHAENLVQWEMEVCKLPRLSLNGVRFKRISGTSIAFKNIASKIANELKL
Chain of CSNK2A1 (human) (P68400 whole entry, looked up): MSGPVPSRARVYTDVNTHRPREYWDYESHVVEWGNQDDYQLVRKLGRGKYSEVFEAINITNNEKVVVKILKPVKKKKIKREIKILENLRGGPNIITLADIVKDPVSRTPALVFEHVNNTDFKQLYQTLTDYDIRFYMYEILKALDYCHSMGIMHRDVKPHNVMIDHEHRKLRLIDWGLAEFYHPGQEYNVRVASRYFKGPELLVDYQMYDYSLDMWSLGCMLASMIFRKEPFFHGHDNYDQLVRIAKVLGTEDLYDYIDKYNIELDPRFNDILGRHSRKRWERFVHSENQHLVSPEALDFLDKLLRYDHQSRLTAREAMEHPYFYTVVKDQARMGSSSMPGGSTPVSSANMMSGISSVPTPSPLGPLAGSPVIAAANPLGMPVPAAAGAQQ
Chain of ALK (human) (Q9UM73 whole entry, looked up): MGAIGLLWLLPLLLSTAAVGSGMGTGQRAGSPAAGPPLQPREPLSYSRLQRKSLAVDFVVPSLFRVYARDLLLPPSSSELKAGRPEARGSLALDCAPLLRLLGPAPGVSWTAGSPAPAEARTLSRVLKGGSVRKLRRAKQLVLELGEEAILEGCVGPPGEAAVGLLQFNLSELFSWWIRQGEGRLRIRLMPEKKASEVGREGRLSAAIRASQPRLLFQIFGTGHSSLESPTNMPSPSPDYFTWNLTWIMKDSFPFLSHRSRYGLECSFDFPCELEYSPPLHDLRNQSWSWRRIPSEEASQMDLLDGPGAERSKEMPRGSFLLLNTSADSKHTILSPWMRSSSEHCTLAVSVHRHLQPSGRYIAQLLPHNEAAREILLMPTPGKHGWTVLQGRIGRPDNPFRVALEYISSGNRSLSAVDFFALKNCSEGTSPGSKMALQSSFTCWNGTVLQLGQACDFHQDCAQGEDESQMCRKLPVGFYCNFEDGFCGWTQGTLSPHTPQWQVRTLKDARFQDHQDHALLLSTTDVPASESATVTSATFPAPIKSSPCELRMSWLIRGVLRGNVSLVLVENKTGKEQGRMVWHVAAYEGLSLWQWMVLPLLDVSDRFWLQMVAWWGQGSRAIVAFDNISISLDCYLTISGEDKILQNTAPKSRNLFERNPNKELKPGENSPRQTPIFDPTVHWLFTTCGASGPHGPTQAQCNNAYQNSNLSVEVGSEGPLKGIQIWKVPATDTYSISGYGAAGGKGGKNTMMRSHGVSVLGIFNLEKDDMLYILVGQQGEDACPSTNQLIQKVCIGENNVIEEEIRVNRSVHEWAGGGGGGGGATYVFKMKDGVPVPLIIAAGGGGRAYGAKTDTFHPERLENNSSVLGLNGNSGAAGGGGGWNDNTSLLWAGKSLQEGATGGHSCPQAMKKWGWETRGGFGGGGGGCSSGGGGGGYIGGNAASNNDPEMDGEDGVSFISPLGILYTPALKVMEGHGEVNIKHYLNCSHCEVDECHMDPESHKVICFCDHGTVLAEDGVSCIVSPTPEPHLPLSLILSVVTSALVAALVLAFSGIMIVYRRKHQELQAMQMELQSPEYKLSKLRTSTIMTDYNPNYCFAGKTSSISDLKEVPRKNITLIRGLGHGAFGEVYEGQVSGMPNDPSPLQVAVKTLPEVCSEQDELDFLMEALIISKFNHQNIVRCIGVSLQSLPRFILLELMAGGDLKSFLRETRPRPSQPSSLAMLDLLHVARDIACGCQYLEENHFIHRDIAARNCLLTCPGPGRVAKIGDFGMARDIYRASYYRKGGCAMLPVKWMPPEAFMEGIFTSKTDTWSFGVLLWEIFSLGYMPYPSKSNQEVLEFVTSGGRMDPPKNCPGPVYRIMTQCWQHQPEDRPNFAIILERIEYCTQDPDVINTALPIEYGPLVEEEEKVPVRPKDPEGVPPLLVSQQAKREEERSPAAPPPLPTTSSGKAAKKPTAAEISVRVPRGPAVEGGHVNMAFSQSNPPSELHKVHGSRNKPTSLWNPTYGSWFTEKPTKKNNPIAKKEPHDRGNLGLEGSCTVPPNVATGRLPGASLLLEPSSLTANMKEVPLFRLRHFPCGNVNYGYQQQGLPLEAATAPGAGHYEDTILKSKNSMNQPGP
Chain of DDR1 (human) (Q08345 whole entry, looked up): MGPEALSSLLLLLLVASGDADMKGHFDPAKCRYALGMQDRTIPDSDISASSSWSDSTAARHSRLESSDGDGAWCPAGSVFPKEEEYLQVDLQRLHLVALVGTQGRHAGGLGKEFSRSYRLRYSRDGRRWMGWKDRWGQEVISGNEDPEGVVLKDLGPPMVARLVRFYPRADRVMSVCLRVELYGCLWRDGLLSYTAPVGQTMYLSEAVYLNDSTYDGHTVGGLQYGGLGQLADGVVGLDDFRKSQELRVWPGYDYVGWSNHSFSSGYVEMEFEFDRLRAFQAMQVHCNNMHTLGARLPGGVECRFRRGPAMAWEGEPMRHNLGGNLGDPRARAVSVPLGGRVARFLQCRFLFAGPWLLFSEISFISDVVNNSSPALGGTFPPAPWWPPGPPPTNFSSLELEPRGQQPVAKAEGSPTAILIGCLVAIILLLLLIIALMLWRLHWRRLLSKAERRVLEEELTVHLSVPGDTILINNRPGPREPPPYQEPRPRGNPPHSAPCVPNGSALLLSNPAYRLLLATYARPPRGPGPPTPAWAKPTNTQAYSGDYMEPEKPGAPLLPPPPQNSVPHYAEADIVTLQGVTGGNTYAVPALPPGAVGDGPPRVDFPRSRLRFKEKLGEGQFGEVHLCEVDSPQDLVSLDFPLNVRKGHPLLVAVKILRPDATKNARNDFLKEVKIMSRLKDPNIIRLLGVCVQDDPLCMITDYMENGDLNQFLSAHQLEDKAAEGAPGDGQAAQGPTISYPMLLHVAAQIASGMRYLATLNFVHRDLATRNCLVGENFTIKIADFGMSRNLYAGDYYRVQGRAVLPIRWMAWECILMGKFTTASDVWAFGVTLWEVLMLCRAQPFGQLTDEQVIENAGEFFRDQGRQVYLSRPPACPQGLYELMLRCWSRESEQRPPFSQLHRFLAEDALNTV

Question: Which results are given for `CCC(=O)N1CCN(c2ccc(-n3c(=O)ccc4cnc5ccc(-c6cnc7ccccc7c6)cc5c43)cc2C(F)(F)F)CC1`?
Answer: per cent of control (ROCK2 (rat); compound 1.0 µM): 96%; per cent of control (ROCK2 (rat); compound 10.0 µM): 101%; per cent of control (CSNK2A1 (human); compound 10.0 µM): 95%; per cent of control (MAPK13 (human); compound 1.0 µM): 106%; per cent of control (MAPK13 (human); compound 10.0 µM): 97%; per cent of control (SYK (human); compound 1.0 µM): 131%; per cent of control (SYK (human); compound 10.0 µM): 68%; per cent of control (NEK2 (human); compound 1.0 µM): 88%; per cent of control (NEK2 (human); compound 10.0 µM): 99%; per cent of control (PRKACA (human); compound 1.0 µM): 106%; per cent of control (PRKACA (human); compound 10.0 µM): 96%; per cent of control (MARK3 (human) [1]; compound 1.0 µM): 99%; per cent of control (MARK3 (human) [1]; compound 10.0 µM): 98%; per cent of control (CHEK1 (human); compound 1.0 µM): 106%; per cent of control (CHEK1 (human); compound 10.0 µM): 125%; kinase still bound, per cent of control (CaMK1 (human)): 50%; kinase still bound, per cent of control (PIK3CB (human)): 65%; kinase still bound, per cent of control (MAPKAPK5 (human)): 100%; kinase still bound, per cent of control (EPHB2 (human)): 100%; kinase still bound, per cent of control (NEK6 (human)): 99%; kinase still bound, per cent of control (PAK4 (human)): 100%; kinase still bound, per cent of control (MAK (human)): 68%; kinase still bound, per cent of control (RAF1 (human)): 48%; kinase still bound, per cent of control (CDC42BPA (human)): 0.65%; kinase still bound, per cent of control (TGFBR2 (human)): 77%; kinase still bound, per cent of control (TESK1 (human)): 58%; kinase still bound, per cent of control (KDR (human)): 65%; kinase still bound, per cent of control (STK32C (human)): 100%; kinase still bound, per cent of control (TXK (human)): 54%; kinase still bound, per cent of control [2]: 0%; kinase still bound, per cent of control [3]: 1%; kinase still bound, per cent of control (EPHB1 (human)): 100%; kinase still bound, per cent of control (CSK (human)): 71%; kinase still bound, per cent of control (SGK3 (human)): 100%; kinase still bound, per cent of control (DDR1 (human)): 100%; kinase still bound, per cent of control (ALK (human)): 80%; kinase still bound, per cent of control (MAP3K6 (human)): 100%; kinase still bound, per cent of control (MAPK7 (human)): 100%; kinase still bound, per cent of control (CAMK1G (human)): 74%; kinase still bound, per cent of control (MAP2K7 (human)): 100%; kinase still bound, per cent of control (PIK3C2B (human)): 25%; kinase still bound, per cent of control (MARK3 (human) [4]): 100%

Question: Which per cent of control (ROCK2 (rat); compound 1.0 µM) does the source give for `CC(C)n1nc(-c2cc3cc(O)ccc3[nH]2)c2c(N)ncnc21` here?
Answer: 105%

Question: What about the per cent of control (ROCK2 (rat); compound 10.0 µM) of the same compound?
Answer: 77%

Question: And the per cent of control (CSNK2A1 (human); compound 1.0 µM)?
Answer: 72%

Question: What about the per cent of control (CSNK2A1 (human); compound 10.0 µM) of the same compound?
Answer: 40%

Question: What about the per cent of control (MAPK13 (human); compound 1.0 µM) of the same compound?
Answer: 97%

Question: And the per cent of control (MAPK13 (human); compound 10.0 µM)?
Answer: 73%

Question: And the per cent of control (SYK (human); compound 1.0 µM)?
Answer: 89%

Question: What about the per cent of control (SYK (human); compound 10.0 µM) of the same compound?
Answer: 61%

Question: What about the per cent of control (NEK2 (human); compound 1.0 µM) of the same compound?
Answer: 86%

Question: What about the per cent of control (NEK2 (human); compound 10.0 µM) of the same compound?
Answer: 54%

Question: And the per cent of control (PRKACA (human); compound 1.0 µM)?
Answer: 94%

Question: And the per cent of control (PRKACA (human); compound 10.0 µM)?
Answer: 45%

Question: What about the per cent of control (MARK3 (human) [1]; compound 1.0 µM) of the same compound?
Answer: 67%

Question: And the per cent of control (MARK3 (human) [1]; compound 10.0 µM)?
Answer: 31%

Question: And the per cent of control (CHEK1 (human); compound 1.0 µM)?
Answer: 91%

Question: What about the per cent of control (CHEK1 (human); compound 10.0 µM) of the same compound?
Answer: 34%

Question: And the kinase still bound, per cent of control (CaMK1 (human))?
Answer: 45%

Question: And the kinase still bound, per cent of control (PIK3CB (human))?
Answer: 0%

Question: And the kinase still bound, per cent of control (MAPKAPK5 (human))?
Answer: 86%

Question: And the kinase still bound, per cent of control (EPHB2 (human))?
Answer: 32%

Question: What about the kinase still bound, per cent of control (NEK6 (human)) of the same compound?
Answer: 100%

Question: What about the kinase still bound, per cent of control (PAK4 (human)) of the same compound?
Answer: 13%

Question: And the kinase still bound, per cent of control (MAK (human))?
Answer: 99%

Question: And the kinase still bound, per cent of control (RAF1 (human))?
Answer: 41%

Question: What about the kinase still bound, per cent of control (CDC42BPA (human)) of the same compound?
Answer: 74%

Question: And the kinase still bound, per cent of control (TGFBR2 (human))?
Answer: 2.8%

Question: What about the kinase still bound, per cent of control (TESK1 (human)) of the same compound?
Answer: 17%

Question: And the kinase still bound, per cent of control (STK32C (human))?
Answer: 69%

Question: What about the kinase still bound, per cent of control (TXK (human)) of the same compound?
Answer: 3%

Question: What about the kinase still bound, per cent of control [5] of the same compound?
Answer: 4.4%

Question: What about the kinase still bound, per cent of control (EPHB1 (human)) of the same compound?
Answer: 49%

Question: And the kinase still bound, per cent of control (CSK (human))?
Answer: 15%

Question: And the kinase still bound, per cent of control (SGK3 (human))?
Answer: 81%

Question: What about the kinase still bound, per cent of control (DDR1 (human)) of the same compound?
Answer: 6.4%

Question: What about the kinase still bound, per cent of control (FER (human)) of the same compound?
Answer: 64%

Question: And the kinase still bound, per cent of control (ALK (human))?
Answer: 41%

Question: And the kinase still bound, per cent of control (MAP3K6 (human))?
Answer: 85%

Question: What about the kinase still bound, per cent of control (CSNK1A1 (human)) of the same compound?
Answer: 3.6%

Question: What about the kinase still bound, per cent of control (MAPK7 (human)) of the same compound?
Answer: 100%

Question: And the kinase still bound, per cent of control (CAMK1G (human))?
Answer: 77%

Question: And the kinase still bound, per cent of control (SRPK3 (human))?
Answer: 83%

Question: And the kinase still bound, per cent of control (MAP2K7 (human))?
Answer: 75%

Question: What about the kinase still bound, per cent of control (PIK3C2B (human)) of the same compound?
Answer: 5.6%

Question: What about the kinase still bound, per cent of control (MARK3 (human) [4]) of the same compound?
Answer: 100%
